Results: paper PMC10178848, “Modulating fast skeletal muscle contraction protects skeletal muscle in animal models of Duchenne muscular dystrophy” (The Journal of Clinical Investigation, 2023)

Tested on: GRMD plasma proteins
Format: in vivo, dog
Details: EDG-5506 treatment to GRMD baseline; Increased in GRMD

SMILES: O=c1ccc(-c2cnc(OCC(F)(F)F)nc2)nn1Cc1cncc(F)c1 [EDG-5506]
- Change from GRMD Baseline (fraction): Fibronectin Fragment 4 (FN1): -0.0853 fraction
- Change from GRMD Baseline (fraction): Follistatin (FST): -0.1433 fraction
- Change from GRMD Baseline (fraction): Fractalkine (CX3CL1): -0.1153 fraction
- Change from GRMD Baseline (fraction): Fructose-bisphosphate aldolase A (ALDOA): 0.1605 fraction
- Change from GRMD Baseline (fraction): G2/mitotic-specific cyclin-B1 (CCNB1): -0.0054 fraction
- Change from GRMD Baseline (fraction): Galectin-4 (LGALS4): -0.0907 fraction
- Change from GRMD Baseline (fraction): Galectin-7 (LGALS7): -0.1308 fraction
- Change from GRMD Baseline (fraction): Glucose-6-phosphate isomerase (GPI): -0.4647 fraction
- Change from GRMD Baseline (fraction): Glyceraldehyde-3-phosphate dehydrogenase (GAPDH): -0.5078 fraction
- Change from GRMD Baseline (fraction): Glycogen synthase kinase-3 alpha/beta (GSK3A GSK3B): -0.3338 fraction
- Change from GRMD Baseline (fraction): Granulocyte-macrophage colony-stimulating factor (CSF2): -0.2326 fraction
- Change from GRMD Baseline (fraction): Growth factor receptor-bound protein 2 (GRB2): -0.3399 fraction
- Change from GRMD Baseline (fraction): Growth/differentiation factor 5 (GDF5): -0.0403 fraction
- Change from GRMD Baseline (fraction): Heat shock 70 kDa protein 1A (HSPA1A): -0.2859 fraction
- Change from GRMD Baseline (fraction): Heat shock cognate 71 kDa protein (HSPA8): -0.3616 fraction
- Change from GRMD Baseline (fraction): Heat shock protein HSP 90-alpha/beta (HSP90AA1 HSP90AB1): -0.1032 fraction
- Change from GRMD Baseline (fraction): Heat shock protein HSP 90-beta (HSP90AB1): -0.0167 fraction
- Change from GRMD Baseline (fraction): Heat shock protein beta-1 (HSPB1): -0.0454 fraction
- Change from GRMD Baseline (fraction): Hepatoma-derived growth factor-related protein 2 (HDGFRP2): -0.0887 fraction
- Change from GRMD Baseline (fraction): Heterogeneous nuclear ribonucleoprotein A/B (HNRNPAB): -0.2641 fraction
- Change from GRMD Baseline (fraction): Heterogeneous nuclear ribonucleoprotein Q (SYNCRIP): -0.2959 fraction
- Change from GRMD Baseline (fraction): Heterogeneous nuclear ribonucleoproteins A2/B1 (HNRNPA2B1): -0.2792 fraction
- Change from GRMD Baseline (fraction): Hexokinase-2 (HK2): -0.2831 fraction
- Change from GRMD Baseline (fraction): Histidine triad nucleotide-binding protein 1 (HINT1): -0.1184 fraction
- Change from GRMD Baseline (fraction): Histone H1.2 (HIST1H1C): -0.2004 fraction
- Change from GRMD Baseline (fraction): Histone deacetylase 8 (HDAC8): -0.1223 fraction
- Change from GRMD Baseline (fraction): Homeodomain-interacting protein kinase 3 (HIPK3): 0.4673 fraction
- Change from GRMD Baseline (fraction): Immunoglobulin superfamily containing leucine-rich repeat protein 2 (ISLR2): 0.163 fraction
- Change from GRMD Baseline (fraction): Inducible T-cell costimulator (ICOS): -0.069 fraction
- Change from GRMD Baseline (fraction): Inosine-5'-monophosphate dehydrogenase 2 (IMPDH2): -0.2973 fraction
- Change from GRMD Baseline (fraction): Insulin-degrading enzyme (IDE): -0.2351 fraction
- Change from GRMD Baseline (fraction): Insulin-like growth factor-binding protein 3 (IGFBP3): -0.1253 fraction
- Change from GRMD Baseline (fraction): Intercellular adhesion molecule 5 (ICAM5): 0.2028 fraction
- Change from GRMD Baseline (fraction): Interferon alpha-10 (IFNA10): 0.155 fraction
- Change from GRMD Baseline (fraction): Interleukin-1 alpha (IL1A): -0.061 fraction
- Change from GRMD Baseline (fraction): Interleukin-1 receptor-like 2 (IL1RL2): -0.0194 fraction
- Change from GRMD Baseline (fraction): Interleukin-15 receptor subunit alpha (IL15RA): -0.1087 fraction
- Change from GRMD Baseline (fraction): Interleukin-17F (IL17F): -0.0145 fraction
- Change from GRMD Baseline (fraction): Interleukin-37 (IL37): -0.0864 fraction
- Change from GRMD Baseline (fraction): Junctional adhesion molecule B (JAM2): -0.0925 fraction
- Change from GRMD Baseline (fraction): Junctional adhesion molecule C (JAM3): -0.1846 fraction
- Change from GRMD Baseline (fraction): Kallikrein-6 (KLK6): -0.0597 fraction
- Change from GRMD Baseline (fraction): Kallikrein-12 (KLK12): 0.0192 fraction
- Change from GRMD Baseline (fraction): Kallikrein-14 (KLK14): -0.165 fraction
- Change from GRMD Baseline (fraction): Kin of IRRE-like protein 3 (KIRREL3): -0.0664 fraction
- Change from GRMD Baseline (fraction): Kremen protein 2 (KREMEN2): -0.1517 fraction
- Change from GRMD Baseline (fraction): Kynureninase (KYNU): -0.1154 fraction
- Change from GRMD Baseline (fraction): L-Selectin (SELL): -0.2072 fraction
- Change from GRMD Baseline (fraction): L-lactate dehydrogenase B chain (LDHB): -0.3998 fraction
- Change from GRMD Baseline (fraction): Leucine-rich repeat serine/threonine-protein kinase 2 (LRRK2): -0.1394 fraction
- Change from GRMD Baseline (fraction): Leucine-rich repeat transmembrane protein FLRT1 (FLRT1): -0.1359 fraction
- Change from GRMD Baseline (fraction): Low affinity immunoglobulin epsilon Fc receptor (FCER2): -0.0521 fraction
- Change from GRMD Baseline (fraction): MAP kinase-activated protein kinase 2 (MAPKAPK2): -0.3216 fraction
- Change from GRMD Baseline (fraction): MAP kinase-activated protein kinase 3 (MAPKAPK3): -0.2837 fraction
- Change from GRMD Baseline (fraction): Macrophage scavenger receptor types I and II (MSR1): -0.0382 fraction
- Change from GRMD Baseline (fraction): Malate dehydrogenase, cytoplasmic (MDH1): -0.1486 fraction
- Change from GRMD Baseline (fraction): Methionine aminopeptidase 2 (METAP2): -0.1671 fraction
- Change from GRMD Baseline (fraction): Microtubule-associated protein tau (MAPT): -0.2425 fraction
- Change from GRMD Baseline (fraction): Mitogen-activated protein kinase 3 (MAPK3): -0.2851 fraction
- Change from GRMD Baseline (fraction): Mitogen-activated protein kinase 8 (MAPK8): -0.2995 fraction
- Change from GRMD Baseline (fraction): Mitogen-activated protein kinase 12 (MAPK12): -0.3528 fraction
- Change from GRMD Baseline (fraction): Mitogen-activated protein kinase 14 (MAPK14): -0.2706 fraction
- Change from GRMD Baseline (fraction): Mothers against decapentaplegic homolog 3 (SMAD3): -0.0452 fraction
- Change from GRMD Baseline (fraction): Myeloblastin (PRTN3): 0.0617 fraction
- Change from GRMD Baseline (fraction): Myoglobin (MB): -0.422 fraction
- Change from GRMD Baseline (fraction): Myosin-binding protein C, slow-type (MYBPC1): 0.1932 fraction
- Change from GRMD Baseline (fraction): NKG2D ligand 2 (ULBP2): -0.0329 fraction
- Change from GRMD Baseline (fraction): NSFL1 cofactor p47 (NSFL1C): -0.3479 fraction
- Change from GRMD Baseline (fraction): Natural cytotoxicity triggering receptor 3 (NCR3): -0.0271 fraction
- Change from GRMD Baseline (fraction): Neuronal cell adhesion molecule (NRCAM): 0.199 fraction
- Change from GRMD Baseline (fraction): Neutral ceramidase (ASAH2): -0.1226 fraction
- Change from GRMD Baseline (fraction): Nucleoside diphosphate kinase A (NME1): -0.3054 fraction
- Change from GRMD Baseline (fraction): OCIA domain-containing protein 1 (OCIAD1): -0.019 fraction
- Change from GRMD Baseline (fraction): Oncostatin-M (OSM): -0.0794 fraction
- Change from GRMD Baseline (fraction): Opioid-binding protein/cell adhesion molecule (OPCML): -0.0946 fraction
- Change from GRMD Baseline (fraction): PIK3CA/PIK3R1 (PIK3CA PIK3R1): -0.2992 fraction
- Change from GRMD Baseline (fraction): Parathyroid hormone-related protein (PTHLH): -0.1165 fraction
- Change from GRMD Baseline (fraction): Peptidyl-prolyl cis-trans isomerase E (PPIE): -0.2567 fraction
- Change from GRMD Baseline (fraction): Peroxiredoxin-1 (PRDX1): -0.376 fraction
- Change from GRMD Baseline (fraction): Peroxiredoxin-6 (PRDX6): -0.4044 fraction
- Change from GRMD Baseline (fraction): Phosphatidylethanolamine-binding protein 1 (PEBP1): -0.1964 fraction
- Change from GRMD Baseline (fraction): Phosphoglucomutase-1 (PGM1): -0.1676 fraction
- Change from GRMD Baseline (fraction): Phosphoglycerate mutase 1 (PGAM1): 0.2377 fraction
- Change from GRMD Baseline (fraction): Plasma serine protease inhibitor (SERPINA5): -0.1552 fraction
- Change from GRMD Baseline (fraction): Platelet glycoprotein 4 (CD36): -0.0717 fraction
- Change from GRMD Baseline (fraction): Platelet-activating factor acetylhydrolase (PLA2G7): -0.1993 fraction
- Change from GRMD Baseline (fraction): Platelet-derived growth factor receptor alpha (PDGFRA): -0.052 fraction
- Change from GRMD Baseline (fraction): Proliferating cell nuclear antigen (PCNA): -0.2439 fraction
- Change from GRMD Baseline (fraction): Protein NOV homolog (NOV): -0.0815 fraction
- Change from GRMD Baseline (fraction): Protein S100-A12 (S100A12): -0.0694 fraction
- Change from GRMD Baseline (fraction): RAC-alpha/beta/gamma serine/threonine-protein kinase (AKT1 AKT2 AKT3): -0.3391 fraction
- Change from GRMD Baseline (fraction): RAC-beta serine/threonine-protein kinase (AKT2): -0.2794 fraction
- Change from GRMD Baseline (fraction): Rab GDP dissociation inhibitor beta (GDI2): -0.3851 fraction
- Change from GRMD Baseline (fraction): Receptor tyrosine-protein kinase erbB-3 (ERBB3): 0.0234 fraction
- Change from GRMD Baseline (fraction): Receptor-type tyrosine-protein kinase FLT3 (FLT3): -0.1824 fraction
- Change from GRMD Baseline (fraction): Renin (REN): -0.0274 fraction
- Change from GRMD Baseline (fraction): Retinoblastoma-associated protein (RB1): -0.0961 fraction
- Change from GRMD Baseline (fraction): S-formylglutathione hydrolase (ESD): -0.2877 fraction
- Change from GRMD Baseline (fraction): Serine/threonine-protein kinase 17B (STK17B): -0.0905 fraction
- Change from GRMD Baseline (fraction): Serine/threonine-protein kinase Chk2 (CHEK2): 0.2279 fraction
- Change from GRMD Baseline (fraction): Serine/threonine-protein kinase WNK3 (WNK3): -0.1692 fraction
- Change from GRMD Baseline (fraction): Serine/threonine-protein kinase receptor R3 (ACVRL1): -0.0902 fraction
- Change from GRMD Baseline (fraction): Small nuclear ribonucleoprotein F (SNRPF): -0.0313 fraction
- Change from GRMD Baseline (fraction): Somatostatin-28 (SST): 0.1915 fraction
- Change from GRMD Baseline (fraction): T-lymphocyte activation antigen CD80 (CD80): -0.0767 fraction
- Change from GRMD Baseline (fraction): Thymic stromal lymphopoietin (TSLP): -0.0628 fraction
- Change from GRMD Baseline (fraction): Thyroid peroxidase (TPO): -0.1126 fraction
- Change from GRMD Baseline (fraction): Tissue factor pathway inhibitor (TFPI): 0.0479 fraction
- Change from GRMD Baseline (fraction): Transcription factor AP-1 (JUN): -0.1004 fraction
- Change from GRMD Baseline (fraction): Transketolase (TKT): -0.3602 fraction
- Change from GRMD Baseline (fraction): Translationally-controlled tumor protein (TPT1): -0.3694 fraction
- Change from GRMD Baseline (fraction): Triosephosphate isomerase (TPI1): -0.5129 fraction
- Change from GRMD Baseline (fraction): Tropomyosin beta chain (TPM2): -0.0815 fraction
- Change from GRMD Baseline (fraction): Troponin I, cardiac muscle (TNNI3): 0.0173 fraction
- Change from GRMD Baseline (fraction): Troponin I, fast skeletal muscle (TNNI2): 0.1681 fraction
- Change from GRMD Baseline (fraction): Troponin T, cardiac muscle (TNNT2): 0.0317 fraction
- Change from GRMD Baseline (fraction): Tumor necrosis factor ligand superfamily member 11 (TNFSF11): -0.1211 fraction
- Change from GRMD Baseline (fraction): Tumor necrosis factor receptor superfamily member 1B (TNFRSF1B): -0.1149 fraction
- Change from GRMD Baseline (fraction): Tumor necrosis factor receptor superfamily member 3 (LTBR): -0.1112 fraction
